Results filed as inconclusive are left out. The source made the active and inactive calls.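 Rule for the calls: active = red signal from normal-ribosome E. coli cut at least twice as much as green humanized-ribosome signal, growth cut under 30%; inconclusive = no clear call, values can overlap the other calls; inactive = the rest.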
Assays:
[1] = growth inhibition of h34-humanized E. coli versus wild-type, dose response, h34 mutant GFP vs wild-type RFP, cherry-pick, OD600 (AID 977625); details: E. coli h34-humanized GFP strain growth, fluorescence, 24 h; at 50 µM (top of the series)
[2] = test system: E. coli mixed culture (wild-type RFP + h34-humanized GFP), total OD600 growth, 24 h; experiment: as above; details: E. coli h34-humanized GFP strain growth, fluorescence, 24 h; measured here: total culture OD600 growth
[3] = test system: E. coli h34-humanized GFP strain growth, fluorescence, 24 h; experiment: as above

| Structure (SMILES) | activity change, negative = inhibition [1] | AC50 [2] [µM] | AC50 [3] |
| --- | --- | --- | --- |
| COc1cccc(C(=O)Nc2cc(C)nn2-c2ccccc2)c1OC | 18.9 (inactive) | > 100 | – |
| CCN(CC)CCn1c2ccccc2c2nc3ccc([N+](=O)[O-])cc3cc21 | – | 4.35 | 1.39 µM (inactive) |
| COc1ccc(Cn2c(-c3ccc(Cl)cc3)c[n+]3ccccc23)cc1 | 30.2 (inactive) | – | – |
| C[C@@H]1CCCCO[C@H](CN(C)C(=O)CCCN(C)C)[C@H](C)CN([C@@H](C)CO)C(=O)c2cc(NC(=O)Nc3cccc4ccccc34)ccc2O1 | 21.7 (inactive) | > 100 | – |
| COc1ccc2[nH]c3c(=O)n(CCCCC(=O)NCCC(C)C)c(=S)[nH]c3c2c1 | -5.72 (inactive) | – | – |
| Cc1ccc(S(=O)(=O)N2CC[C@H]3[C@H](CO)Nc4ccc(Br)cc4[C@H]32)cc1 | 7.09 (inactive) | – | – |
| COc1cc2c(cc1[N+](=O)[O-])-c1ccc([N+](=O)[O-])cc1C2 | -48.1 (inactive) | 0.378 | – |
| Cc1noc(C)c1NC(=O)Nc1ccc2c(c1)C(=O)N([C@H](C)CO)C[C@@H](C)[C@@H](CN(C)C(=O)Nc1ccc3c(c1)OCO3)OCCCC[C@@H](C)O2 | 0.093 (inactive) | – | – |
| COc1ccc(-n2cc(-c3ccccc3)c3c(N4CCOCC4)ncnc32)cc1 | – | 42.2 | > 100 µM (inactive) |
| CCn1c(-c2cc(-c3ccc(OC(C)C)cc3)nc3ccccc23)n[nH]c1=S | – | – | > 100 µM (inactive) |
| CCOC(=O)c1c(NC(=O)Cc2cccs2)sc(C)c1C | 12.4 (inactive) | > 100 | – |
| Cc1ccc(C)c(NC(=O)CSc2nc3nc(-c4cccs4)cc(C(F)(F)F)c3c(=O)[nH]2)c1 | -48.2 (inactive) | 36.2 | – |
| CC1(Cc2ccccc2C#N)C(=O)Nc2cc(-c3ccccc3Cl)ccc21 (stereo unspecified) | – | 24.8 | – |
| O=C(O)c1cc([N+](=O)[O-])ccc1NCc1ccccc1 | – | 20.1 | – |
